Results published in patent publication US20240058265A1, “TREATMENT OF OCULAR DISEASES USING ENDOTHELIN RECEPTOR ANTAGONISTS” (Perfuse Therapeutics, Inc., priority 2021, published 2024).
“And” between values parts separate entries of the source, which are not always exact repeats. Identical values can stand only once. Like-named read-outs stand apart in the source and are kept apart here.

Columns and labels:
[1] = tested on: laser-induced glaucoma eye; experiment: Laser-induced glaucoma non-human primate, optic nerve head blood flow (LSFG) after IVT administration; assay type: in vivo, rhesus macaque, Macaca Mulatta; conditions: IVT 50 μL of 0.02, 0.2 or 2.0 mg/mL, over 6 hours, glaucomatous eye
Method: Non-human primates (rhesus macaque, Macaca Mulatta) were obtained for this study. One eye of each animal underwent induction of elevation of intraocular pressure (TOP) by repeated laser photocoagulation of the trabecular meshwork. Imaging sessions were repeated to monitor the optic nerve head (ONH) and retinal structural changes. A study was performed to compare an experimental glaucoma eye and a contralateral healthy eye (control) of three non-human primates in global average mean blur rate (MBR) and MBR change from baseline over time as an index of ONH blood flow in a laser-induced glaucoma model. More specifically, a vehicle control, 0.02 mg/mL of Edonentan, 0.2 mg/mL of Edonentan, or 2.0 mg/mL of Edonentan was intravitreally administered (50 μL) to a glaucomatous eye of each of three non-human primates (rhesus macaque, Macaca Mulatta). These graphs show the ONH blood flow in the three non-human primates after IVT administration of a vehicle alone (FIG. 7A, FIG. 7E, and FIG. 7I), 0.02 mg/mL of Edonentan (FIG. 7B, FIG. 7F, and FIG. 7J), 0.2 mg/mL of Edonentan (FIG. 7C, FIG. 7G, and FIG. 7K) or 2.0 mg/mL of Edonentan (FIG. 7D, FIG. 7H, and FIG. 7L).

[2] = tested on: laser-induced glaucoma eye; experiment: Laser-induced glaucoma non-human primate, intraocular pressure after topical administration; assay type: in vivo, rhesus macaque, Macaca Mulatta; conditions: 50 μL eyedrop 2 mg/mL
Method: Non-human primates (rhesus macaque, Macaca Mulatta) were obtained for this study. One eye of each animal underwent induction of elevation of intraocular pressure (TOP) by repeated laser photocoagulation of the trabecular meshwork. Imaging sessions were repeated to monitor the optic nerve head (ONH) and retinal structural changes. A single dose of 0.5% Timolol or a single dose of 2 mg/mL Edonentan was topically administered to three non-human primates that have laser-induced glaucoma in their right eyes (OD) with 1-week wash-out in a randomized order.

[3] = Solubility (pH 2, pH 7, ethyl acetate); assay type: physicochemical
Text: In the above table, the physicochemical data, e.g., solubility, were obtained following standard protocols known in the field (see, e.g., Reis et al., Mini Rev Med Chem., 2010, 10(11):1071-6; Avdeef et al., Expert Opin Drug Metab Toxicol., 2005, 1(2):325-42; Bharate et al., Comb Chem High Throughput Screen., 2016, 19(6):461-9; and Jain et al., J Pharm Biomed Anal., 2013, 86:11-35.); and the biochemical data, i.e., potency for ETA/ETB, were obtained following the protocols known in the field (see, e.g., Kirkby et al., Br J Pharmacol., 2008, 153(6):1105-19; and Maguire et al., Br J Pharmacol., 2014, 171(24):5555-72.).

[4] = tested on: elevated IOP rat eye; experiment: Morrison's rat model of glaucoma (RGC counts, PERG); assay type: in vivo, Brown Norway rats; conditions: topical eye drops 100 μg per dose, five days a week, four weeks
Text: Adult male and female retired breeder Brown Norway rats (approximate age groups of 8 to 11 months) were obtained from Envigo (Indianapolis, IN). Baseline IOP measurements and pattern electroretinogram (PERG) amplitudes were collected prior to the surgery for elevation of IOP (to ensure that the IOP and PERG amplitudes were in the expected range of values). IOP was elevated in one eye (left eye) of the rats, while the corresponding right eyes served as contralateral controls. The Morrison method to elevate IOP in rats was carried out by injection of 50 μL of hypertonic saline through the episcleral veins to sclerose the trabecular meshwork. IOP was measured twice a week throughout the entire duration of the experiment. […] After detecting an elevation of IOP for two consecutive days, topical administration of eye drops ([…] (100 μg,) per dose of the tested compounds in the IOP elevated eye) was commenced and carried out for five days a week for a total of four weeks. In the 4th week of treatment, PERG analysis was carried out and rats were sacrificed by an overdose of pentobarbital (fatal-Plus). Aqueous humor was collected from the rat eyes, frozen and shipped for analysis. Retinal flat mounts were prepared, immunostained with the RGC marker, Brn3a antibody and surviving RG-Cs were counted in two eccentricities (central and peripheral).
For this study, the Morrison's model was used to induce ocular hypertension in adult male retired breeder Brown Norway rats as previously described by. Morrison et al., (Morrison J C, Moore C G, Deppmeier L M, Gold B G, Meshul C K, Johnson E C. A rat model of chronic pressure-induced optic nerve damage. Exp Eye Res. 1997;64(1):85-96).
The immunostained retinal flat mounts were obtained to measure the retinal ganglion cell (RGC) counts. To obtain immunostained retinal flat mounts, the animals were euthanized after the treatments and then their eyes were enucleated. The eye cups were fixed overnight at 4° C. in 4% paraformaldehyde (PFA) and retinal flat mounts were prepared for collecting images. The retinal ganglion cell (RGC) counting was conducted using the images of immunostained retinal flat mounts. The images were uploaded to ImageJ, a photo editor designed for biology research (Rasband, 1997-2018) and the labeled retinal ganglion cells were counted manually in two eccentricities (central and peripheral).
Pattern ERG (PERG) was used to assess the RGC function. […] Briefly, PERG signals were acquired from a DTL-plus electrode placed on the lower part of the corneal surface and the PERG waves were analyzed using the EMWIN software (LKC). The difference between the amplitude of the major positive (P1) and negative (N2) waves were calculated to decipher the PERG amplitude.

Solubility in Ethyl Acetate (rating) ([3]; ethyl acetate): Good | solubility ([3]; ethyl acetate, organic solvent or mixture, read-out: Solubility in Ethyl Acetate): > 8900 µg/mL and > 16800 µM | solubility ([3]; pH 2, simulated gastric fluid, read-out: Solubility at pH 2): < 0.54 µg/mL and < 1 µM | Solubility at pH 7 ([3]; pH 7, amorphous form): 607 μM
SMILES: Cc1onc(NS(=O)(=O)c2ccccc2-c2ccc(-c3ncco3)cc2CN(C)C(=O)CC(C)(C)C)c1C [Edonentan, N-[[2′-[[(4,5-dimethyl-3-isoxazolyl)amino]sulfonyl]-4-(2-oxazolyl)[1,1′-biphenyl]-2-yl]methyl]-N,3,3-trimethylbutanamide]
ONH blood flow (mean blur rate, LSFG) [1]: improvement of ONH blood flow in a dose-dependent manner | IOP reduction from pre-dose to post-dose ([2]; Non-human Primate 1, contralateral healthy eye, 120 minutes): about 10% | IOP reduction from pre-dose to post-dose ([2]; Non-human Primate 1, experimental glaucoma eye, 120 minutes): about 60% | IOP reduction from pre-dose to post-dose ([2]; Non-human Primate 2, contralateral healthy eye, 15 minutes): about 20% | IOP reduction from pre-dose to post-dose ([2]; Non-human Primate 2, contralateral healthy eye, 120 minutes): about 0% | IOP reduction from pre-dose to post-dose ([2]; Non-human Primate 2, experimental glaucoma eye, 15 minutes): about 50% | IOP reduction from pre-dose to post-dose ([2]; Non-human Primate 2, experimental glaucoma eye, 120 minutes): about 30% | IOP reduction from pre-dose to post-dose ([2]; Non-human Primate 3, contralateral healthy eye, 15 minutes): about 10% | IOP reduction from pre-dose to post-dose ([2]; Non-human Primate 3, contralateral healthy eye, 120 minutes): about 40% | IOP reduction from pre-dose to post-dose ([2]; Non-human Primate 3, experimental glaucoma eye, 15 minutes): about 40% | IOP reduction from pre-dose to post-dose ([2]; Non-human Primate 3, experimental glaucoma eye, 120 minutes): about 40% | RGC function (PERG) [4]: maintained RGC function | RGC loss (RGC counts, retinal flat mounts) [4]: prevented RGC loss
